{
  "source": "ChEMBL document CHEMBL6182840",
  "about": "“A review of click chemistry in the synthesis of organophosphorus triazoles and their biological activities” (Eur J Med Chem, 2025)",
  "key": {"Hepatitis B virus": {"test_system": "Hepatitis B virus", "assay": "Antiviral activity against HBV infected in human Huh-7 cells assessed as inhibition of HBV DNA production at 10 uM relative to control", "type": "functional"}, "[1]": {"assay": "Cytotoxicity against human PBMC cells assessed as reduction in cell viability by MTS assay", "type": "functional, cell-based"}, "HepG2": {"test_system": "HepG2", "assay": "Cytotoxicity against human HepG2 cells assessed as reduction in cell viability by MTS assay", "type": "functional, cell-based"}, "HCT-116 [2]": {"test_system": "HCT-116", "assay": "Cytotoxicity against human HCT-116 cells assessed as reduction in cell growth by MTT assay", "type": "functional, cell-based"}, "MCF7 [3]": {"test_system": "MCF7", "assay": "Cytotoxicity against human MCF7 cells assessed as reduction in cell growth by MTT assay", "type": "functional, cell-based"}, "[4]": {"assay": "Cytotoxicity against human HEF cells assessed as reduction in cell growth by MTT assay", "type": "functional, cell-based"}, "A549": {"test_system": "A549", "assay": "Cytotoxicity against human A549 cells assessed as reduction in cell viability incubated for 72 hrs by MTT assay", "type": "functional, cell-based", "conditions": "A549, 72 h"}, "MCF7 [5]": {"test_system": "MCF7", "assay": "Cytotoxicity against human MCF7 cells assessed as reduction in cell viability incubated for 72 hrs by MTT assay", "type": "functional, cell-based", "conditions": "MCF7, 72 h"}, "Caov-3 cell line": {"test_system": "Caov-3 cell line", "assay": "Cytotoxicity against human Caov-3 cell line assessed as reduction in cell viability incubated for 72 hrs by MTT assay", "type": "functional, cell-based", "conditions": "Caov-3, 72 h"}, "HCT-116 [6]": {"test_system": "HCT-116", "assay": "Cytotoxicity against human HCT-116 cells assessed as reduction in cell viability incubated for 72 hrs by MTT assay", "type": "functional, cell-based", "conditions": "HCT-116, 72 h"}, "PC-3": {"test_system": "PC-3", "assay": "Cytotoxicity against human PC-3 cells assessed as reduction in cell viability incubated for 72 hrs by MTT assay", "type": "functional, cell-based", "conditions": "PC-3, 72 h"}, "[7]": {"target": "T1, 4-galactosyl-N-acetylglucosaminide 3-alpha-L-fucosyltransferase FUT6 (Homo sapiens, UniProt P51993)", "T1 sequence (P51993 whole entry)": "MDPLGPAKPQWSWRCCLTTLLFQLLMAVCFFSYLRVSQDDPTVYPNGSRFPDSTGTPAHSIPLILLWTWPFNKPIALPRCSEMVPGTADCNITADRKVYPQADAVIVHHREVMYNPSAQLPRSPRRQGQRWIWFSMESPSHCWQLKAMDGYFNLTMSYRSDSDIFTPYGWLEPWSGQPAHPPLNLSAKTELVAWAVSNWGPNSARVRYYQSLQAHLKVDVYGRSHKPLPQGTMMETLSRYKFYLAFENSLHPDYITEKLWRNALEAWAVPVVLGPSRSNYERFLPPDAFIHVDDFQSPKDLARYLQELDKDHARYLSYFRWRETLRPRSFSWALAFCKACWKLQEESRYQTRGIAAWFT", "assay": "Inhibition of human FUT6"}},
  "data": [
    {"smiles": "CCCCCCCCCCCCCCCCOCCCOP(=O)(C/C=C(\\C)Cn1cc(C(N)=O)nn1)OCOC(=O)OC(C)C", "note": "(stereo not given)", "values": [
      {"measurement": "inhibition at 10 µM", "setting": "Hepatitis B virus", "result": 62, "unit": "%"},
      {"measurement": "IC50", "setting": "[1]", "result": 43.1, "unit": "µM"},
      {"measurement": "IC50", "setting": "HepG2", "result": 66.4, "unit": "µM"}
    ]},
    {"smiles": "CCOP(=O)(OCC)C(Cc1cn(CCN2C/C(=C\\c3ccc([N+](=O)[O-])cc3)C(=O)/C(=C/c3ccc([N+](=O)[O-])cc3)C2)nn1)P(=O)(OCC)OCC", "values": [
      {"measurement": "IC50", "setting": "HCT-116 [2]", "result": 5, "unit": "µM"},
      {"measurement": "IC50", "setting": "MCF7 [3]", "result": 5, "unit": "µM"},
      {"measurement": "IC50", "setting": "[4]", "result": 5, "unit": "µM"}
    ]},
    {"smiles": "CCOP(=O)(CCCn1cc(CN2C/C(=C\\c3ccc(C#N)cc3)C(=O)/C(=C/c3ccc(C#N)cc3)C2)nn1)OCC", "values": [
      {"measurement": "IC50", "setting": "A549", "result": 1500, "unit": "nM"},
      {"measurement": "IC50", "setting": "MCF7 [5]", "result": 1500, "unit": "nM"},
      {"measurement": "IC50", "setting": "Caov-3 cell line", "result": 1500, "unit": "nM"},
      {"measurement": "IC50", "setting": "HCT-116 [6]", "result": 1500, "unit": "nM"},
      {"measurement": "IC50", "setting": "PC-3", "result": 1500, "unit": "nM"}
    ]},
    {"smiles": "CCOP(=O)(CCCCn1cc(CN2C/C(=C\\c3ccc([N+](=O)[O-])cc3)C(=O)/C(=C/c3ccc([N+](=O)[O-])cc3)C2)nn1)OCC", "values": [
      {"measurement": "IC50", "setting": "A549", "result": 1500, "unit": "nM"},
      {"measurement": "IC50", "setting": "MCF7 [5]", "result": 1500, "unit": "nM"},
      {"measurement": "IC50", "setting": "Caov-3 cell line", "result": 1500, "unit": "nM"},
      {"measurement": "IC50", "setting": "HCT-116 [6]", "result": 1500, "unit": "nM"},
      {"measurement": "IC50", "setting": "PC-3", "result": 1500, "unit": "nM"}
    ]},
    {"smiles": "CCOP(=O)(CCCn1cc(CN2C/C(=C\\c3ccc([N+](=O)[O-])cc3)C(=O)/C(=C/c3ccc([N+](=O)[O-])cc3)C2)nn1)OCC", "values": [
      {"measurement": "IC50", "setting": "A549", "result": 1500, "unit": "nM"},
      {"measurement": "IC50", "setting": "MCF7 [5]", "result": 1500, "unit": "nM"},
      {"measurement": "IC50", "setting": "Caov-3 cell line", "result": 1500, "unit": "nM"},
      {"measurement": "IC50", "setting": "HCT-116 [6]", "result": 1500, "unit": "nM"},
      {"measurement": "IC50", "setting": "PC-3", "result": 1500, "unit": "nM"}
    ]},
    {"smiles": "Nc1nc2c(ncn2[C@@H]2O[C@H](COP(=O)(O)OP(=O)(O)OCc3cn(CCCCC(=O)NCc4ccc(-c5ccccc5)cc4)nn3)[C@@H](O)[C@H]2O)c(=O)[nH]1", "values": [
      {"measurement": "IC50", "setting": "[7]", "result": 610, "unit": "nM"}
    ]},
    {"smiles": "CCOP(=O)(CCCCn1cc(CN2C/C(=C\\c3ccc(C#N)cc3)C(=O)/C(=C/c3ccc(C#N)cc3)C2)nn1)OCC", "values": [
      {"measurement": "IC50", "setting": "A549", "result": 1500, "unit": "nM"},
      {"measurement": "IC50", "setting": "MCF7 [5]", "result": 1500, "unit": "nM"},
      {"measurement": "IC50", "setting": "Caov-3 cell line", "result": 1500, "unit": "nM"},
      {"measurement": "IC50", "setting": "HCT-116 [6]", "result": 1500, "unit": "nM"},
      {"measurement": "IC50", "setting": "PC-3", "result": 1500, "unit": "nM"}
    ]},
    {"smiles": "CCOP(=O)(OCC)C(Cc1cn(CCN2C/C(=C\\c3ccc(C#N)cc3)C(=O)/C(=C/c3ccc(C#N)cc3)C2)nn1)P(=O)(OCC)OCC", "values": [
      {"measurement": "IC50", "setting": "HCT-116 [2]", "result": 5, "unit": "µM"},
      {"measurement": "IC50", "setting": "MCF7 [3]", "result": 5, "unit": "µM"},
      {"measurement": "IC50", "setting": "[4]", "result": 5, "unit": "µM"}
    ]},
    {"smiles": "CCOP(=O)(CCCn1cc(CN2C/C(=C\\c3ccc(F)cc3)C(=O)/C(=C/c3ccc(F)cc3)C2)nn1)OCC", "values": [
      {"measurement": "IC50", "setting": "A549", "result": 1500, "unit": "nM"},
      {"measurement": "IC50", "setting": "MCF7 [5]", "result": 1500, "unit": "nM"},
      {"measurement": "IC50", "setting": "Caov-3 cell line", "result": 1500, "unit": "nM"},
      {"measurement": "IC50", "setting": "HCT-116 [6]", "result": 1500, "unit": "nM"},
      {"measurement": "IC50", "setting": "PC-3", "result": 1500, "unit": "nM"}
    ]}
  ]
}
